Measured values published in US9474744B2, “Beta-lactam compounds for treating diabetes” (STEM CELL MEDICINE LTD., priority 2011, dated 2016).

Experiments:
CD4+ human T cells = assay: Human Autoimmune and Inflammatory Response Gene Array, anti-CD3-stimulated T cells with or without antibiotic; assay type: cell-based; details: 120 min anti-CD3; for % increase by Amp: ampicillin 50 μg/ml
Method: T cells were purified from the peripheral bloods of healthy human donors (Blood Bank, Sheba Medical center). The whole blood was incubated (20 min, 22° C.) with RosetteSep™ human T cell enrichment mixture (StemCell Technologies, Vancouver, Canada). The remaining unsedimented cells were then loaded onto lymphocyte separation medium (ICN Biomedicals, Irvine, Calif.), isolated by density centrifugation, and washed with PBS. […] In a second round of purification, CD3^+ T cells were labeled for selection with a magnetically coupled mAb against CD4 (Miltenyi Biotec, Auburn, Calif.).
Human CD4 T cells were isolated as described, and incubated in 24 well plates (Nunc), 4×10^6 cells/ml with plate bound anti-human CD3 (OKT3) at 2 μg/ml. The stimulation was performed in RPMI medium supplemented with 0.1% BSA. […] RNA was extracted from samples and used to prepare probes for gene array in accord with the manufacturer's instructions (SuperArray Bioscience, Frederick, Md.). Adequate labeling of the probes was tested before hybridization. Three healthy donors were tested in stimulation with cefuroxime. The membranes were analyzed online with the Image Data Acquisition and Expression Analysis (SuperArray Bioscience).
The Human Autoimmune and Inflammatory Response Gene Array (SuperArray Bioscience corporation, Frederick, Md., USA) was used for analysis of gene expression by the T cells. This array contains 367 genes including cytokines, chemokines and their receptors, transcription factors and signaling proteins. […] Analysis of the results was performed using the GEArray analysis program. […] To verify the results detected by the gene array study, a panel of six genes was designed and tested by real-time PCR: CCR4, ACVR2, JAK1, STAT4, TLR2 and NFKBIE. The cDNA that was used was prepared from the same RNA used for the gene array experiment.

[1] = tested on: encephalitogenic BP10 line; assay: Adoptive EAE: BP10 T-cell line stimulated in vitro with test substance, then injected into naive rats; assay type: in vivo, rat; details: BP10 line stimulated 3 days with MBP in presence of 50 μg/ml antibiotic; 10^7 cells per rat
Method: Antigen-specific T-cell lines were established from lymph node cells that had been stimulated with myelin basic protein (MBP; 10 μg/ml) for 3 days in stimulation medium as described below. Following stimulation, the T-cell blasts were isolated on LYMPHOPREP™ (Nycomed Pharma, Oslo, Norway) and seeded in propagation medium. Propagation medium was identical to stimulation medium without autologous serum, but supplemented with fetal calf serum 10% and T-cell growth factors from the supernatant of Con A stimulated spleen cells 10% (Mor et al. (1990) J Clin Invest, 85, 1594-1598). Animals were injected intra-peritoneally with 107 MBP-stimulated T cells, following 6-8 cycles of in vitro stimulations. It is known that MBP-reactive lines undergo a reduction in pathogenicity after 6 or more in vitro stimulations. In some experiments the BP10 line was stimulated with phorbol myristate acetate (PMA; 50 ng/ml) and ionomycin (500 ng/ml) for 3 days in stimulation medium, without antigen-presenting cells.
Active EAE was induced by subcutaneous injection of 25 μg guinea-pig MBP (GpMBP) in complete Freund's adjuvant (CFA). […] Adoptive EAE was transferred by intra-peritoneal injection of guinea-pig MBP-activated cells of the BP10 line as described in Mor et al. (1993) J Clin Invest, 92, 2199-2206. […] Clinical scoring was: +1, paralysis of tail; +1.5, paresis of posterior paws and ataxia; +2, paraplegia; +3, paralysis extending to thoracic spine; +4, a moribund state.
Treatment with cefuroxime in vivo could affect many different host agents involved in EAE or AA as well as influencing the rats' bacterial flora. To test whether the antibiotic might directly modify the behavior of effector T cells, an encephalitogenic T-cell line was stimulated in the presence or absence of cefuroxime in vitro. The weakly encephalitogenic BP10 line was used, and was stimulated for 3 days with MBP in the presence or absence of cefuroxime (50 μg/ml). The activated T cells were then washed to remove the antibiotic, the T cells were injected intra-peritoneally into naïve recipient rats (10^7 per rat), and EAE was scored. The BP10 line at later stimulations was used, when its pathogenic potential is reduced, allowing to detect both suppression and enhancement of disease. […] To rule out antigen presenting cells (APC) as the target of the beta-lactam antibiotic, the encephalitogenic BP10 line was stimulated without APC using PMA (50 ng/ml) and Ionomycin (500 ng/ml) in the presence or absence of cefuroxime.
Additional beta-lactam antibiotics were tested for their effect on the adoptive transfer of EAE.
A control group was injected with the untreated line.

Structure (SMILES): CC1(C)S[C@@H]2[C@H](NC(=O)[C@H](N)c3ccccc3)C(=O)N2[C@H]1C(=O)O [ampicillin]
- number of the 57 cefuroxime-down-regulated genes that were up-regulated (CD4+ human T cells; 50 μg/ml): 56 genes
- % increase by Amp (CD4+ human T cells; gene ACTB): +196%
- % increase by Amp (CD4+ human T cells; gene ACVR1, A low expression): +53%
- % increase by Amp (CD4+ human T cells; gene ACVR2, A low expression): +85%
- % increase by Amp (CD4+ human T cells; gene CCL5): +25%
- % increase by Amp (CD4+ human T cells; gene CCL11): +107%
- % increase by Amp (CD4+ human T cells; gene CCR4): +31%
- % increase by Amp (CD4+ human T cells; gene CCR6): +83%
- % increase by Amp (CD4+ human T cells; gene CCR7): +43%
- % increase by Amp (CD4+ human T cells; gene CD28): +175%
- % increase by Amp (CD4+ human T cells; gene CD40LG): +67%
- % increase by Amp (CD4+ human T cells; gene CREBBP): +49%
- % increase by Amp (CD4+ human T cells; gene CXCL10): +25%
- % increase by Amp (CD4+ human T cells; gene EGR3): −25%
- % increase by Amp (CD4+ human T cells; gene GFI1): +10%
- % increase by Amp (CD4+ human T cells; gene HRAS, A low expression): −12%
- % increase by Amp (CD4+ human T cells; gene IL1B, A low expression): +64%
- % increase by Amp (CD4+ human T cells; gene IL2RB): +93%
- % increase by Amp (CD4+ human T cells; gene IL2RG, A low expression): +78%
- % increase by Amp (CD4+ human T cells; gene IL9R): No change
- % increase by Amp (CD4+ human T cells; gene IL16, A low expression): +14%
- % increase by Amp (CD4+ human T cells; gene IRAK1): +171%
- % increase by Amp (CD4+ human T cells; gene JAK1): +161%
- % increase by Amp (CD4+ human T cells; gene JUN): +65%
- % increase by Amp (CD4+ human T cells; gene LTA): +48.5%
- % increase by Amp (CD4+ human T cells; gene MAP2K4): +150%
- % increase by Amp (CD4+ human T cells; gene MAP3K1, A low expression): +63%
- % increase by Amp (CD4+ human T cells; gene MAP3K2): +93%
- % increase by Amp (CD4+ human T cells; gene MAP3K7): +124%
- % increase by Amp (CD4+ human T cells; gene MAPK9): +46%
- % increase by Amp (CD4+ human T cells; gene NFKB1): +31%
- % increase by Amp (CD4+ human T cells; gene NFKB2): +195%
- % increase by Amp (CD4+ human T cells; gene NFKBIE): +132%
- % increase by Amp (CD4+ human T cells; gene NFKBIL1): +191%
- % increase by Amp (CD4+ human T cells; gene PAK1): +111%
- % increase by Amp (CD4+ human T cells; gene PIN1): +105%
- % increase by Amp (CD4+ human T cells; gene RANBP5): +108%
- % increase by Amp (CD4+ human T cells; gene REL): +132%
- % increase by Amp (CD4+ human T cells; gene RFX5): +137%
- % increase by Amp (CD4+ human T cells; gene RFXAP): +131%
- % increase by Amp (CD4+ human T cells; gene SDF2): +71%
- % increase by Amp (CD4+ human T cells; gene SELL): +124%
- % increase by Amp (CD4+ human T cells; gene SMAD4): +85%
- % increase by Amp (CD4+ human T cells; gene SMAD7, A low expression): +34%
- % increase by Amp (CD4+ human T cells; gene SP3): +47%
- % increase by Amp (CD4+ human T cells; gene SRF): +58%
- % increase by Amp (CD4+ human T cells; gene STAT1): +85%
- % increase by Amp (CD4+ human T cells; gene STAT4): +11%
- % increase by Amp (CD4+ human T cells; gene STAT6): no change
- % increase by Amp (CD4+ human T cells; gene TGFBR3): +139%
- % increase by Amp (CD4+ human T cells; gene TGIF, A low expression): +72%
- % increase by Amp (CD4+ human T cells; gene TLR2, A low expression): +419%
- % increase by Amp (CD4+ human T cells; gene TNFRSF11, A low expression): +81%
- % increase by Amp (CD4+ human T cells; gene TNFα): +39%
- % increase by Amp (CD4+ human T cells; gene TRAF5, A low expression): +47%
- % increase by Amp (CD4+ human T cells; gene TRAF6, A low expression): +39%
- % increase by Amp (CD4+ human T cells; gene YY1): +152%
- severity of adoptive EAE in recipient rats [1]: did not increase the severity of EAE
